Activity calls are given as the source filed them. No cut-off for these calls is given here.

In data set [1] the target is T1, Prostaglandin G/H synthase 2 (Homo sapiens) (UniProt P35354).
T1 sequence (whole entry): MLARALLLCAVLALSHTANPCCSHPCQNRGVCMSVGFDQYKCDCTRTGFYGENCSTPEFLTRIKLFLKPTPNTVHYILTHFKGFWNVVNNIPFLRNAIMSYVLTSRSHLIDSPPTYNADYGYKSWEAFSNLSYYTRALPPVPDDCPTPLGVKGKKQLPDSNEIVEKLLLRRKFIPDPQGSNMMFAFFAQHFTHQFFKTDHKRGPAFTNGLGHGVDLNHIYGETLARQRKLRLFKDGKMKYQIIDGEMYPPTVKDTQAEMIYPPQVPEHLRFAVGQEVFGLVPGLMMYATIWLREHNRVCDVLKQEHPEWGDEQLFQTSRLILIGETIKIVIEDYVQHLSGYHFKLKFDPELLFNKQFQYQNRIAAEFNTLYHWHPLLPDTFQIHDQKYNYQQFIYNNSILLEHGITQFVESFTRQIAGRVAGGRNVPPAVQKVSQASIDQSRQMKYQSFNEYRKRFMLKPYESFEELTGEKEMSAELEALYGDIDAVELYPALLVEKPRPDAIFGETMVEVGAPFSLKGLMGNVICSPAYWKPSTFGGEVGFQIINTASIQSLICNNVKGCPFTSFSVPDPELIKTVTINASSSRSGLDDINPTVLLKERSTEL
Nature of the data set: Inhibition of human recombinant COX2 assessed as residual activity at 10 uM after 5 mins.

Data set [2] addresses T2, Peroxisome proliferator-activated receptor alpha (Homo sapiens) (UniProt Q07869).
T2 sequence (whole entry): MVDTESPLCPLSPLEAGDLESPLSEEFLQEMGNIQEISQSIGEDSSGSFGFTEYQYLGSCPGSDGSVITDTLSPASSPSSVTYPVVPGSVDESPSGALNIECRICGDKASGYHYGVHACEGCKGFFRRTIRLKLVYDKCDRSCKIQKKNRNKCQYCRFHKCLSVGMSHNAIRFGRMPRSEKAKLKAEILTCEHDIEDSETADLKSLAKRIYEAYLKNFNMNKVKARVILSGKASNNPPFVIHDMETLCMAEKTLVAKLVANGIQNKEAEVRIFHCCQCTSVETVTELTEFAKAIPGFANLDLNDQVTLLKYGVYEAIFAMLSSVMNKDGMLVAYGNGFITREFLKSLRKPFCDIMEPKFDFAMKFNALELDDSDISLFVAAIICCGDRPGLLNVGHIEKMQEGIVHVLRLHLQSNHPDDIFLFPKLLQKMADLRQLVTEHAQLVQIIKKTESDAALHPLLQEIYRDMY
Nature of the data set: Agonist activity at human PPARalpha-LBD expressed in COS7 cells co-transfected with Gal4 at 10 uM by luciferase based transactivation assay. In kind it is functional, cell-based. The conditions noted are these: COS-7.

The target of data set [3] is T3, Peroxisome proliferator-activated receptor delta (Homo sapiens) (UniProt Q03181).
T3 sequence (whole entry): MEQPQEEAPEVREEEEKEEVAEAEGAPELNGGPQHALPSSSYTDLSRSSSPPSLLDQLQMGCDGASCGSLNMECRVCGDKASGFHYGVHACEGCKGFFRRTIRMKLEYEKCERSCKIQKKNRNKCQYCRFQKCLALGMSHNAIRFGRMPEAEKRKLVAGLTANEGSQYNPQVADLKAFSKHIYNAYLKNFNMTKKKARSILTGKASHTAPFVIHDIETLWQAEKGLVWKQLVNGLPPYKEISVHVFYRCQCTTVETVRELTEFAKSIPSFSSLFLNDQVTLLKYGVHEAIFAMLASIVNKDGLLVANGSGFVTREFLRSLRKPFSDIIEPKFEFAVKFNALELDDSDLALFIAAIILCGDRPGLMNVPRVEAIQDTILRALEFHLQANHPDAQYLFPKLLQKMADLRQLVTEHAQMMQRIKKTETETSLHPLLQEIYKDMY
Nature of the data set: Agonist activity at human PPARdelta-LBD expressed in COS7 cells co-transfected with Gal4 at 10 uM by luciferase based transactivation assay. Conditions: COS-7. The data set is classed as functional, cell-based.

Data set [4] deals with T4, Peroxisome proliferator-activated receptor gamma (Homo sapiens, UniProt P37231).
T4 sequence (P37231 whole entry): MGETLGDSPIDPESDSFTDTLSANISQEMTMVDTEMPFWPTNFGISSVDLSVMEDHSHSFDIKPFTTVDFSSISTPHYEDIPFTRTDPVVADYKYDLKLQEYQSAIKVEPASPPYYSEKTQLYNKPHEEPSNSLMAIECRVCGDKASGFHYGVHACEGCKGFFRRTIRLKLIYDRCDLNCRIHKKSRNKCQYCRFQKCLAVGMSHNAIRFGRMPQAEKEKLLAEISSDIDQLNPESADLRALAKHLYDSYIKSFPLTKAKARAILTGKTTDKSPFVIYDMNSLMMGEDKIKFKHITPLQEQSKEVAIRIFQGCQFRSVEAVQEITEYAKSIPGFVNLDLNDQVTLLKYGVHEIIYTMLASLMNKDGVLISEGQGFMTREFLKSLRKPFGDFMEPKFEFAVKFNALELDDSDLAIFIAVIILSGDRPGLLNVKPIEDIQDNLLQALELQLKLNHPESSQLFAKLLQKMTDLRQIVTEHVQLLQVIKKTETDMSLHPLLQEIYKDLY
Nature of the data set: Agonist activity at human PPARgamma-LBD expressed in COS7 cells co-transfected with Gal4 by luciferase based transactivation assay. The data set is classed as functional, cell-based, COS-7.

Data set [5] addresses T5, Peroxisome proliferator-activated receptor gamma (Homo sapiens) (UniProt P37231).
T5 sequence (whole entry): T4 sequence (P37231 whole entry)
Nature of the data set: Agonist activity at human PPARgamma-LBD expressed in COS7 cells co-transfected with Gal4 by luciferase based transactivation assay relative to pioglitazone. Conditions: COS-7. The data set is classed as functional, cell-based.

Data set [6] can be described thus: Modulation of gamma-secretase-mediated cleavage of human APP expressed in CHO cells with human presenilin-1 assessed as activation of amyloid beta38 production after 24 hrs by ELISA. In kind it is cell-based.
Data set [7] deals with CHO. Nature of the data set: Modulation of gamma-secretase-mediated notch signaling expressed in CHO cells transfected with Gal4-DNA-binding/VP16 transactivation domain assessed as reduction of reporter activity at 5 to 40 uM after 24 hrs. In kind it is cell-based.
In data set [8] the test system is CHO. Nature of the data set: Cytotoxicity against CHO cells at 60 uM after 24 hrs by Alamar blue assay. In kind it is cell-based, Cricetulus griseus. Conditions: chinese hamster. For orientation: The colour change of resazurin is a common sign of viable cells or microbes.
Data set [9] deals with CHO. Nature of the data set: Cytotoxicity against CHO cells at 40 uM after 24 hrs by Alamar blue assay. The data set is classed as cell-based, Cricetulus griseus. The conditions noted are these: chinese hamster.
The target of data set [10] is T6, Prostaglandin G/H synthase 1 (Ovis aries) (UniProt P05979).
T6 sequence (whole entry): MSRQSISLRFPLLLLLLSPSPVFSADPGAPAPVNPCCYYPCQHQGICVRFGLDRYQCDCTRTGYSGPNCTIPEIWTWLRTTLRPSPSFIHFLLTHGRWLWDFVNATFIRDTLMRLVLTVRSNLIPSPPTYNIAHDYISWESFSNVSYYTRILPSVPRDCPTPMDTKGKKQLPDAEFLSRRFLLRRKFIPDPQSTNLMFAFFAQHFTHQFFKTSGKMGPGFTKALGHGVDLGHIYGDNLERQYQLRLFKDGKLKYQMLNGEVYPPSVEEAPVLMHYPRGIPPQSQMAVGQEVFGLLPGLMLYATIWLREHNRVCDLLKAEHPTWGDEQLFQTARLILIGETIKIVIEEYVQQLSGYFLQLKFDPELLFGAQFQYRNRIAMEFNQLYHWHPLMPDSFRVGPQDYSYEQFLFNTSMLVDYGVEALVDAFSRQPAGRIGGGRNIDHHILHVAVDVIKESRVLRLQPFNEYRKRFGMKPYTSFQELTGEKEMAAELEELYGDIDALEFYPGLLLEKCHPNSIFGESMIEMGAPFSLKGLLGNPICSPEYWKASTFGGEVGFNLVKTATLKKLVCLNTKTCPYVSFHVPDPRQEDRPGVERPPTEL
Nature of the data set: Inhibition of ovine COX1 assessed as residual activity at 10 uM after 5 mins.

The target of data set [11] is T7, Prostaglandin G/H synthase 1 (Ovis aries, UniProt P05979).
T7 sequence (P05979 whole entry): T6 sequence (whole entry)
Description: Inhibition of ovine COX1 after 5 mins

The nature of data set [12]: cells. Conditions: CHO, 24 h.
Description: Modulation of gamma-secretase-mediated cleavage of human APP expressed in CHO cells with human presenilin-1 assessed as inhibition of amyloid beta42 production after 24 hrs by ELISA

`CCCCC(Sc1nc(OCCc2ccc(C(F)(F)F)cc2)cc(OCCc2ccc(C(F)(F)F)cc2)n1)C(=O)O` (configuration not stated): the Activity in [1] is 69%; in data set [8] it was 25%; in [9] it was “Non-toxic”; in [10] it was 54.4%. For the same compound, the result in data set [2], in [3] and in data set [7] was inactive. Further, the EC50 (commonly the concentration at which the effect is half-maximal) in [4] amounted to 11 µM; in [6], 1.8 µM. The Emax in [5] came to 112%. Further, the IC50 (in general, the point on the concentration scale where inhibition reaches its midpoint) in [11] amounted to 16.9 µM; in [12] it was 6 µM.

(Values after ChEMBL document CHEMBL1177708, “Design, synthesis, and biological evaluation of a novel class of gamma-secretase modulators with PPARgamma activity” (J Med Chem, 2010).)
